Measurements taken from patent US20220177931A1, “PROCESS AND COMPOSITION FOR CONTROLLING ETHANOL PRODUCTION” (priority 2020, published 2022).

Key:
Clostridium ljungdahlii = assay: Syngas fermentation in stirred tank bioreactor, effect of vitamin feed rates on specific ethanol productivity; assay type: cell-based; conditions: for effect of increasing feed rate on specific ethanol productivity: Experiment 4, vitamin B5 feed held constant below about 30 ug/g of cells, vitamin B1 and B7 feeds increased
Experimental: A synthesis gas containing CO. CO2 and H2 was continuously introduced into a stirred tank bioreactor containing Clostridium ljungdahlii (Experiments 1-4), along with a liquid medium containing trace metals and salts as described herein. Vitamins were provided using dedicated feed lines. A New Brunswick Bioflow reactor containing the fermentation medium was started with actively growing Clostridium ljungdahlii (Experiments 1-4). The rate of agitation of the reactor was set to 800 rpm at the start of the experiment and this agitation rate was maintained throughout the experiment. Feed gas flow to the reactor was increased based on the H2 and CO uptake of the culture. Temperature in the bioreactor was maintained at about 38° C. throughout the experiment. Samples of gas feed into the bioreactor and off-gas from the bioreactor and fermentation broth in the bioreactor were taken at intervals, for example feed gas, off-gas and fermentation broth were sampled about daily, once two hours and once four hours respectively. Above samples were analyzed for consumption or production of various gas components, broth acetic acid concentration, broth ethanol concentration and the optical density (cell density) of the culture. The unaroused volume of the reactor was maintained between 3000 to 3250 ml throughout the experiment. Further, the gas flow to the reactor was maintained at required gas flow rates by using a mass flow controller. The feed […] composition was 23% H2, 35% CO, 29% CO2 and 13% N2. In the following reactor runs, vitamins biotin, thiamine and pantothenate were feed to the reactor using a dedicated stream. Steady state conditions were maintained for a period of time greater than 5 times the cell retention time. Cell mass was essentially replaced 5 times before data collection phase started. After data set was collected, vitamin feed rate was adjusted, adjustment phase was repeated, and next data set was collected. Adjustment phase refers to an amount of time necessary for the culture to equilibrate to a change. In this experiment culture was allowed at least a 3-day adjustment phase. A cell recycle system (CRS) was attached to the reactor before the start of the experiment. During the experiment, medium feed rate was 3.0 to 6.0 ml/min, and through the CRS, 0-5 ml/min permeate was drawn out from the reactor. The following tables describe the vitamin feed rates and specific ethanol productivity (SEP).

[1] = tested on: Clostridium autoethanogenum; assay: Fermentation trials, effect of vitamin feed rates and low cell retention time on specific ethanol productivity; assay type: cell-based
Experimental: Fermentation trials were conducted with Clostridium autoethanogenum with Biotin (B7) and Thiamine (B1) feeds held at lower base levels with increasing Pantothenate (B5) Feeds.

SMILES	SEP (specific ethanol productivity) (Clostridium ljungdahlii; Experiment 3, feeds (μg/g cells produced): pantothenate 19.33, biotin 17.76, thiamine 13.36) [g/day/g cells]	SEP (specific ethanol productivity) (Clostridium ljungdahlii; Experiment 3, feeds (μg/g cells produced): pantothenate 37.91, biotin 17.42, thiamine 13.10) [g/day/g cells]	SEP (specific ethanol productivity) (Clostridium ljungdahlii; Experiment 3, feeds (μg/g cells produced): pantothenate 55.49, biotin 17.00, thiamine 12.79) [g/day/g cells]	SEP (specific ethanol productivity) (Clostridium ljungdahlii; Experiment 3, feeds (μg/g cells produced): pantothenate 72.34, biotin 16.62, thiamine 12.50) [g/day/g cells]	SEP (specific ethanol productivity) (Clostridium ljungdahlii; Experiment 3, feeds (μg/g cells produced): pantothenate 108.13, biotin 19.87, thiamine 14.95) [g/day/g cells]	SEP (specific ethanol productivity) (Clostridium ljungdahlii; Experiment 3, feeds (μg/g cells produced): pantothenate 125.67, biotin 20.55, thiamine 14.76) [g/day/g cells]	specific ethanol productivity increase (Clostridium ljungdahlii; Experiment 3, vitamin B5 feed from about 20 to about 108 ug/g of cells produced, vitamin B1 and B7 feeds under 20 ug/g)	SEP (specific ethanol productivity) ([1]; feeds (μg/g cells produced): pantothenate 48.47, biotin 29.54, thiamine 23.10, cell retention time 13.45 hrs) [g/day/g cells]	SEP (specific ethanol productivity) ([1]; feeds (μg/g cells produced): pantothenate 58.08, biotin 26.65, thiamine 20.84, cell retention time 13.27 hrs) [g/day/g cells]	SEP (specific ethanol productivity) ([1]; feeds (μg/g cells produced): pantothenate 62.90, biotin 23.04, thiamine 18.01, cell retention time 12.44 hrs) [g/day/g cells]	SEP (specific ethanol productivity) ([1]; feeds (μg/g cells produced): pantothenate 68.78, biotin 25.19, thiamine 19.70, cell retention time 11.36 hrs) [g/day/g cells]	SEP (specific ethanol productivity) ([1]; feeds (μg/g cells produced): pantothenate 70.67, biotin 21.62, thiamine 16.91, cell retention time 11.22 hrs) [g/day/g cells]	SEP (specific ethanol productivity) ([1]; feeds (μg/g cells produced): pantothenate 81.90, biotin 18.79, thiamine 14.69, cell retention time 9.81 hrs) [g/day/g cells]	specific ethanol productivity increase ([1]; vitamin B5 feed from about 48 to about 82 ug/g of cells produced, B1 and B7 under 30 then under 20 ug/g, cell retention time from about 13.5 to 9.8 hours)	effect of increasing feed rate on specific ethanol productivity (Clostridium ljungdahlii)
CC(C)(CO)[C@@H](O)C(=O)NCCC(=O)O [Pantothenate, pantothenate]	7.95	8.64	10.03	10.33	11.25	11.15	about 42%	8.08	8.24	8.51	9.39	9.70	9.98	about 24%	–
Cc1ncc(C[n+]2csc(CCO)c2C)c(N)n1 [Thiamine, thiamine]	–	–	–	–	–	–	–	–	–	–	–	–	–	–	did not increase specific ethanol productivity
O=C(O)CCCC[C@@H]1SC[C@@H]2NC(=O)N[C@@H]21 [Biotin, biotin]	–	–	–	–	–	–	–	–	–	–	–	–	–	–	did not increase specific ethanol productivity
